Each compound was assayed against C-C chemokine receptor type 5 (Homo sapiens, UniProt P51681) (assay: Antagonist activity at Homo sapiens (human) CCR5 receptor).
Sequence of C-C chemokine receptor type 5 (P51681 whole entry): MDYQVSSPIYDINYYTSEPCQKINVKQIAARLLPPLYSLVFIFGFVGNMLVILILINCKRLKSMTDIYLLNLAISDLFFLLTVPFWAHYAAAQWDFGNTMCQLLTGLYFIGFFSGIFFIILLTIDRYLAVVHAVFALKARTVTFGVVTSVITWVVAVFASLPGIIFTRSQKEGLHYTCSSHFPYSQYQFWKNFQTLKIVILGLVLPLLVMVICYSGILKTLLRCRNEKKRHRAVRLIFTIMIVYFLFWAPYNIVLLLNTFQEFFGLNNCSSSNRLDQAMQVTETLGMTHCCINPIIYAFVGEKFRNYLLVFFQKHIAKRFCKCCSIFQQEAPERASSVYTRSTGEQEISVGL

IC50 [nM] | SMILES
2 | C=CCN(C(=O)c1ccc([N+](=O)[O-])cc1)C1CCN(CCC(CN(C)S(=O)(=O)c2ccccc2)c2ccccc2)CC1 (configuration not stated)
0.759 | C=CCN(C(=O)Nc1ccc([N+](=O)[O-])cc1)C1CCN(CCC(CN(C)S(=O)(=O)c2ccccc2)c2ccccc2)CC1 (configuration not stated)
100 | CCN(C(=O)NCc1ccccc1)C1CCN(CCC(CN(C)S(=O)(=O)c2ccccc2)c2ccccc2)CC1 (configuration not stated)
1000 | CCCN(C(=O)NC)C1CCN(CCC(CN(C)S(=O)(=O)c2ccccc2)c2ccccc2)CC1 (configuration not stated)
0.794 | CCCN(C(=O)OCc1cccc(C(N)=O)c1)C1CCN(CC[C@H](CN(C)S(=O)(=O)c2ccccc2)c2ccccc2)CC1
39.8 | CCN(C(=O)OC)C1CCN(CC[C@H](CN(C)S(=O)(=O)c2ccccc2)c2cccc(Cl)c2)CC1
2.51 | CN(CC(CCN1CCC(NC(=O)NCc2ccccc2)CC1)c1ccccc1)S(=O)(=O)c1ccccc1 (configuration not stated)
1000 | COC(=O)NC1CCN(CC[C@H](CN(C)S(=O)(=O)c2ccccc2)c2ccccc2)CC1
3.02 | CCCN(C(=O)OCc1ccc(C(N)=O)cc1)C1CCN(CC[C@H](CN(C)S(=O)(=O)c2ccccc2)c2ccccc2)CC1
1.51 | CCCN(C(=O)OCc1ccccc1C)C1CCN(CC[C@H](CN(C)S(=O)(=O)c2ccccc2)c2ccccc2)CC1
3.98 | CCCN(C(=O)OCc1ccccc1)C1CCN(CC[C@H](CN(C)S(=O)(=O)c2ccccc2)c2ccccc2)CC1
120 | CNC(=O)NC1CCN(CCC(CN(C)S(=O)(=O)c2ccccc2)c2ccccc2)CC1 (configuration not stated)

Reference: ChEMBL document CHEMBL3046540, “Statistically validated QSAR study of some antagonists of the human CCR5 receptor using least square support vector machine based on the genetic algorithm and factor analysis” (Med Chem Res, 2013)
